Results as given in ChEMBL document CHEMBL1201862, “PubChem BioAssay data set” (2004).
Active and inactive are the calls of the source.

Tests used:
[1] = biological target: Phospholipase D1 (Homo sapiens, UniProt Q13393); experiment: cellular phospholipase D1 inhibition IC50 – cell-based, dose response (AID 602151); assay type: functional;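 further: cellular PLD1 assay in Calu-1 cells stimulated with PMA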
[2] = biological target: Phospholipase D2 (Homo sapiens, UniProt O14939); experiment: cellular phospholipase D2 inhibition IC50 – cell-based, dose response (AID 602147); assay type: functional;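 further: cellular assay in HEK293 cells overexpressing GFP-tagged PLD2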
[3] = biological target: T1, Sentrin-specific protease 8 (Homo sapiens, UniProt Q96LD8); experiment: inhibition of human SENP8 cleavage activity – biochemical, luminescence, SAR follow-up (AID 504501); assay type: functional
T1 sequence (Q96LD8 whole entry): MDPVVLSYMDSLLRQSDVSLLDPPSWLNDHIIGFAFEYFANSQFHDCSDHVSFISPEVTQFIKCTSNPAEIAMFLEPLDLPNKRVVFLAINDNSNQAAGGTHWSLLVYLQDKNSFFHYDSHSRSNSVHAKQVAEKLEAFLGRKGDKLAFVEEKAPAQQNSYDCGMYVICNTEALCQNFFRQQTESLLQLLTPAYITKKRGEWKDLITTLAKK

[4] = biological target: T2, Caspase-3 (Homo sapiens, UniProt P42574); experiment: inhibition of recombinant caspase-3 activity – biochemical, luminescence, set 2, selectivity assay for SENP protease inhibitor project, SAR follow-up (AID 588599); assay type: functional
T2 sequence (P42574 whole entry): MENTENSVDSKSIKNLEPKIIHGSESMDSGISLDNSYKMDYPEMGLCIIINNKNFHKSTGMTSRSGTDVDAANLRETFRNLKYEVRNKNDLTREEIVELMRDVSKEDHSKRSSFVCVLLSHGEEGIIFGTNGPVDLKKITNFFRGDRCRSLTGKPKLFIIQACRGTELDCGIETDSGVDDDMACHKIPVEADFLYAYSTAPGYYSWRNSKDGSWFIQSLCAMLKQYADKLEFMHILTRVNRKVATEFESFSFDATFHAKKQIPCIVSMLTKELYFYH

[5] = biological target: T1, Sentrin-specific protease 8; experiment: inhibition of sentrin protease 8 – biochemical, luminescence, set 2, SAR follow-up (AID 588601); assay type: functional
[6] = biological target: T2, Caspase-3; experiment: SAR Analysis of small molecule inhibitors of Sentrin-specific proteases (SENPs) using a Caspase-3 Selectivity assay. [Related pubchem assays (depositor defined):AID2540, AID2599, AID434973, AID489001]; assay type: functional
[7] = biological target: T3, Sentrin-specific protease 7 (Homo sapiens, UniProt Q9BQF6); experiment: inhibition of human SENP7 cleavage activity – biochemical, luminescence, set 2, SAR follow-up (AID 588600); assay type: functional
T3 sequence (Q9BQF6 whole entry): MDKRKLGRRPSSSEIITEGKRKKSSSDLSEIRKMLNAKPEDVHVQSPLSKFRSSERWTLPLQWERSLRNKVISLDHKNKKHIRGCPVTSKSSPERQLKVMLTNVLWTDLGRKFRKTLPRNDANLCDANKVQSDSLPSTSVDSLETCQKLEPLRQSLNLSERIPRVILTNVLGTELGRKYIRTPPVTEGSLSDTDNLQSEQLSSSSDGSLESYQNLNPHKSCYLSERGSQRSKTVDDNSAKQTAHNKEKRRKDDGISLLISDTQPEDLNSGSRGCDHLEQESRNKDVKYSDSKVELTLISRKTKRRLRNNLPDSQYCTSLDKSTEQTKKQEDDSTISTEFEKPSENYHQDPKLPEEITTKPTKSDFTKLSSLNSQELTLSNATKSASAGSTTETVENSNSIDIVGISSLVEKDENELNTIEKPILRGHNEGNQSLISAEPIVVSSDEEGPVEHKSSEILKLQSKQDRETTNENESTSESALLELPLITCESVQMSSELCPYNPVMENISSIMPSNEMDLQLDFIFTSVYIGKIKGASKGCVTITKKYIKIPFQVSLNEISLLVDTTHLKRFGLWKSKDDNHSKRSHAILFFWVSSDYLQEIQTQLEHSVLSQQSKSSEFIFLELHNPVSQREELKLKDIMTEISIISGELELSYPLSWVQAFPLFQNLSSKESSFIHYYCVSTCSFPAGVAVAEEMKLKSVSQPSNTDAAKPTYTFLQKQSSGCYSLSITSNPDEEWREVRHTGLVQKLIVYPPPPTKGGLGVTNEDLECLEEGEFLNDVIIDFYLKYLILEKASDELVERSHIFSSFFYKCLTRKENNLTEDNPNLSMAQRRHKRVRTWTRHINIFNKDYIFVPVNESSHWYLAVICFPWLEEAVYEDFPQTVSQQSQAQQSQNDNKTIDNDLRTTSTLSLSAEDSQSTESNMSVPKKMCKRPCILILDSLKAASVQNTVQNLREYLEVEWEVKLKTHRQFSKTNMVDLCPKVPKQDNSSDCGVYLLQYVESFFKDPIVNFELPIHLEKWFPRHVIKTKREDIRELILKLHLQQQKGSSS

[8] = biological target: T4, Sentrin-specific protease 6 (Homo sapiens, UniProt Q9GZR1); experiment: SAR Analysis of small molecule inhibitors of Sentrin-specific protease 6 (SENP6) using a Luminescent assay. [Related pubchem assays (depositor defined):AID2582, AID2599]; assay type: functional
T4 sequence (Q9GZR1 whole entry): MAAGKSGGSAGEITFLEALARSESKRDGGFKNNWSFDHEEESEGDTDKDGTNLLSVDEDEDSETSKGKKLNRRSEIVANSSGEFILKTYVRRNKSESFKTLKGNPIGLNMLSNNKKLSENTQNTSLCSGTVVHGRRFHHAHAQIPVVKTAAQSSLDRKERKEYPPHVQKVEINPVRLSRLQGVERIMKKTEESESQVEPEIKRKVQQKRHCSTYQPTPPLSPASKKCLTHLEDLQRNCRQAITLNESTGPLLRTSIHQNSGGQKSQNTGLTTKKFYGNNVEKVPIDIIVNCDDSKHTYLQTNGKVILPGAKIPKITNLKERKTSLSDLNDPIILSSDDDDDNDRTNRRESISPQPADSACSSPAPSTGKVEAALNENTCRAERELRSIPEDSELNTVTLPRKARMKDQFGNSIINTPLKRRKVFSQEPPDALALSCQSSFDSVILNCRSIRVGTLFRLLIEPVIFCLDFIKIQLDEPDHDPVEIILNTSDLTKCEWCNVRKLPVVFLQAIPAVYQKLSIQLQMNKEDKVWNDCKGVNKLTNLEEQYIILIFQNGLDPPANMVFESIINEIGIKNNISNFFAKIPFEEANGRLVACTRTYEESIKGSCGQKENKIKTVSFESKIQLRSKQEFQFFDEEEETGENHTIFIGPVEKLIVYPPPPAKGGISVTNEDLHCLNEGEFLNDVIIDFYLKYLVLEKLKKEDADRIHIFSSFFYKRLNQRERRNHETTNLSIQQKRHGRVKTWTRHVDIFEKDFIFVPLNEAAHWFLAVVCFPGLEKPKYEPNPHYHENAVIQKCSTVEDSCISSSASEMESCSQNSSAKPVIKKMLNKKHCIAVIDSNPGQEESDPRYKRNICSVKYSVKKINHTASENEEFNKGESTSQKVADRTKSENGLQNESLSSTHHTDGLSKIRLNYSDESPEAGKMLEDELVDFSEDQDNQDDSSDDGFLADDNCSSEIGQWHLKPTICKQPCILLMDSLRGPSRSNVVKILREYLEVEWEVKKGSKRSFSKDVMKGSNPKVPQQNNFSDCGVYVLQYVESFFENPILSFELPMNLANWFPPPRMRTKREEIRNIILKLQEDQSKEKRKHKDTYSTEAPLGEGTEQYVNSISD

[9] = biological target: T4, Sentrin-specific protease 6; experiment: inhibition of human SENP6 catalytic domain – biochemical, luminescence, set 2, SAR follow-up (AID 588598); assay type: functional
[10] = biological target: T3, Sentrin-specific protease 7; experiment: inhibition of human SENP7 cleavage activity – biochemical, luminescence, SAR follow-up (AID 504497); assay type: functional
[11] = biological target: Peroxisome proliferator-activated receptor gamma/Nuclear receptor coactivator 2 (Homo sapiens, UniProt P37231); assay type: functional;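 further: agonist potency for raising coactivator recruitment to the receptor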
[12] = biological target: Peroxisome proliferator-activated receptor gamma/Nuclear receptor coactivator 1 (Homo sapiens, UniProt P37231); assay type: functional;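 further: agonist potency as compounds enhance coactivator SRC-1 recruitment to PPARgamma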
[13] = biological target: Peroxisome proliferator-activated receptor gamma/Nuclear receptor coactivator 3 (Homo sapiens, UniProt P37231); assay type: functional;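 further: agonist potency for raising coactivator recruitment to the receptor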
[14] = tested on: A-375; experiment: MITF: Counter assay: A375 proliferation Measured in Cell-Based System Using Plate Reader - 2084-03_Inhibitor_Dose_DryPowder_Activity. [Related pubchem assays (depositor defined):AID488944]; assay type: functional; details: Homo sapiens
[15] = tested on: A-375; experiment: proliferation inhibition in MITF-low A375 cells – cell-based, cherry-pick samples, set 2, counter-screen for MITF modulator project, dose response (AID 540335); assay type: functional; details: Homo sapiens
[16] = biological target: Voltage-gated inwardly rectifying potassium channel KCNH2 (Homo sapiens, UniProt Q12809); details: Potency;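 further: confirmatory quantitative high-throughput screen measuring inhibition of hERG channel activity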
Sequence of Voltage-gated inwardly rectifying potassium channel KCNH2 (Q12809 whole entry): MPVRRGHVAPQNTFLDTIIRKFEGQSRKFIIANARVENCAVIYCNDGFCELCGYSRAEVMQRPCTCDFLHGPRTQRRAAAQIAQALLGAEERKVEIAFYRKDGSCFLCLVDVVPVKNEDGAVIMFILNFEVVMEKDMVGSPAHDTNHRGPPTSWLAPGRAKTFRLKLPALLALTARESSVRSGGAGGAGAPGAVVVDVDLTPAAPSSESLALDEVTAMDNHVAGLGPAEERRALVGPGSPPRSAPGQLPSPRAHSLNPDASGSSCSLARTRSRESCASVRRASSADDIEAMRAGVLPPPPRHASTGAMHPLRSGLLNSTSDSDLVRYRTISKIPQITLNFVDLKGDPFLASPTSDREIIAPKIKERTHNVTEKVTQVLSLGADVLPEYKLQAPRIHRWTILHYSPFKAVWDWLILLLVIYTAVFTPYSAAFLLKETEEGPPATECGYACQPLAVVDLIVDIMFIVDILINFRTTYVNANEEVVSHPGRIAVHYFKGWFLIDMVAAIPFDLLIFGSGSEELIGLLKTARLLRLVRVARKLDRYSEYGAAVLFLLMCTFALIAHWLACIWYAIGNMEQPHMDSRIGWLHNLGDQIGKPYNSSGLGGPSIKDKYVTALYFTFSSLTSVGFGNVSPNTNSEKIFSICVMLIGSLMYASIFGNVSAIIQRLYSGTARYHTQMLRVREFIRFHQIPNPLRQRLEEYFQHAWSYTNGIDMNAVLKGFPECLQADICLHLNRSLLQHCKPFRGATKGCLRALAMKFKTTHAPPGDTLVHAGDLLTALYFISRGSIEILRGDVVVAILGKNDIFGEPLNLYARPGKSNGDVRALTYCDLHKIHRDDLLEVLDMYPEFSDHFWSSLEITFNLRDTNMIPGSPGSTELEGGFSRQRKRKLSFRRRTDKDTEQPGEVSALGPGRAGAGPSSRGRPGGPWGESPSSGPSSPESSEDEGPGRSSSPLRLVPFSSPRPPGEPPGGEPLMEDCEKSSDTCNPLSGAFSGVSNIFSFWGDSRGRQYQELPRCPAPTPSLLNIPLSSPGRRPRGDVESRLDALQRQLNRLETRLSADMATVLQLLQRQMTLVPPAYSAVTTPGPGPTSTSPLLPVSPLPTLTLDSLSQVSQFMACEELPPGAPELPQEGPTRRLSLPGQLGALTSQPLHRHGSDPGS

Sequence of Phospholipase D1 (Q13393 whole entry): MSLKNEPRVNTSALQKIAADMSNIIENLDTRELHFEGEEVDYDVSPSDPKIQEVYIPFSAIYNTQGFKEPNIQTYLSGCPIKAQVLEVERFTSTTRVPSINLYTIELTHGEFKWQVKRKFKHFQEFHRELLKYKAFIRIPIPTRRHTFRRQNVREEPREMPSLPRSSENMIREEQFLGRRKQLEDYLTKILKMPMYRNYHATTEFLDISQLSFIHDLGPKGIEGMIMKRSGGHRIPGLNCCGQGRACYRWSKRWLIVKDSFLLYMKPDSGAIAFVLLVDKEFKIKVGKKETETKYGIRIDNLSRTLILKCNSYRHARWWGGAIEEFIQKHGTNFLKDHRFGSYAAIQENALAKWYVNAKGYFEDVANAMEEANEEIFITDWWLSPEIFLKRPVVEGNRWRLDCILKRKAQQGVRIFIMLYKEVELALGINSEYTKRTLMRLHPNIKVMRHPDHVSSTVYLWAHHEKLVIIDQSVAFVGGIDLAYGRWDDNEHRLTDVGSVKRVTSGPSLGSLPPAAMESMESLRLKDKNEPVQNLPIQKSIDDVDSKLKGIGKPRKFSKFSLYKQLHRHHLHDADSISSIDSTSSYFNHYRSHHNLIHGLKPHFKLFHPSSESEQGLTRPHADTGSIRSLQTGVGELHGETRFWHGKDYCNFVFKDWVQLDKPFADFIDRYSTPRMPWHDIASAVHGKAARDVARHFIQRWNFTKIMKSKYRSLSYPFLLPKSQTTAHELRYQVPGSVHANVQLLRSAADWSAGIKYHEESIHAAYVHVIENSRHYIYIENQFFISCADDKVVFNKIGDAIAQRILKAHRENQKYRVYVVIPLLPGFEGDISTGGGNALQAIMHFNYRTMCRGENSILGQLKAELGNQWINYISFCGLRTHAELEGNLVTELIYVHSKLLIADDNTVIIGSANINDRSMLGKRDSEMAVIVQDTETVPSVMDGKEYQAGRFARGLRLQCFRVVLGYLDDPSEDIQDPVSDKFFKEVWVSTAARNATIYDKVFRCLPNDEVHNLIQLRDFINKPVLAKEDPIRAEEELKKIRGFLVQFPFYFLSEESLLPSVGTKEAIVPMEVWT
Sequence of Phospholipase D2 (O14939 whole entry): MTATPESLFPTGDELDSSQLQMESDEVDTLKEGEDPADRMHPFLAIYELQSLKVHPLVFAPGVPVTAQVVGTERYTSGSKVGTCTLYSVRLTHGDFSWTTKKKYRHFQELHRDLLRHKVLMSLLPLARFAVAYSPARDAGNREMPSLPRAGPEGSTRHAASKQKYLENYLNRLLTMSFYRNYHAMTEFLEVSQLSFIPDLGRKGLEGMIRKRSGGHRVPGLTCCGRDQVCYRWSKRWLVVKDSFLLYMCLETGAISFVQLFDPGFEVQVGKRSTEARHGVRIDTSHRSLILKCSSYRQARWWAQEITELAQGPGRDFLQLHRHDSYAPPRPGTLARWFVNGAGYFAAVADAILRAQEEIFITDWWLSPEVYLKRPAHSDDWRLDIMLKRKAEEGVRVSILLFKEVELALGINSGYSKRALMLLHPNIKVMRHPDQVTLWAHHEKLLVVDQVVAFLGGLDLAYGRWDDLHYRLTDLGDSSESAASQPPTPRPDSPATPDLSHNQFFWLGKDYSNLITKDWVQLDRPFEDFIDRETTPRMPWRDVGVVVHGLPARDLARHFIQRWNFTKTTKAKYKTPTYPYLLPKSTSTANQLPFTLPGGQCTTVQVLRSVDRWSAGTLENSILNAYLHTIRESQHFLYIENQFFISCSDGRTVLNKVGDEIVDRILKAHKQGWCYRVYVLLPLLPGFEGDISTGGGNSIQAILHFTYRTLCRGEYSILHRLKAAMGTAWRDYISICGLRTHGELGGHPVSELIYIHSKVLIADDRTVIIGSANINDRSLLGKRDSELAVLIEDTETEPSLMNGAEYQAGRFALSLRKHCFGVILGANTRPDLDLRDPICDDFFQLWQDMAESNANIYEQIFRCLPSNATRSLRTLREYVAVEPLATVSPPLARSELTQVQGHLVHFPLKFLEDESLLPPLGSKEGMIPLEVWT
Sequence of Peroxisome proliferator-activated receptor gamma/Nuclear receptor coactivator 1 (P37231 whole entry): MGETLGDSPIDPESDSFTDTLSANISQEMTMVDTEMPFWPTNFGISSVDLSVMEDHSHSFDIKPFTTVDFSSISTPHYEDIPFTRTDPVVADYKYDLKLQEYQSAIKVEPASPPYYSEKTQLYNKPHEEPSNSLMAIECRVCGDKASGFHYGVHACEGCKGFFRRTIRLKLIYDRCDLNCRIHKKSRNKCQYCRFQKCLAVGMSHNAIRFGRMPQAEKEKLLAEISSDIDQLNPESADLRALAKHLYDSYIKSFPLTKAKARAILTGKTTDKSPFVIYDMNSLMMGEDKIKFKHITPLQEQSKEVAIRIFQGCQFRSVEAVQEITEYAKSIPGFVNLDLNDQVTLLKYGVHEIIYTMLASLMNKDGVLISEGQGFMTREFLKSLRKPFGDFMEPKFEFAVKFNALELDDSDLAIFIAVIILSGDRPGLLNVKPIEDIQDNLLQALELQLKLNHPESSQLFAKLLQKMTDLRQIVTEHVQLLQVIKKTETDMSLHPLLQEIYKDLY
Sequence of Peroxisome proliferator-activated receptor gamma/Nuclear receptor coactivator 1 (Q15788 whole entry, further chain): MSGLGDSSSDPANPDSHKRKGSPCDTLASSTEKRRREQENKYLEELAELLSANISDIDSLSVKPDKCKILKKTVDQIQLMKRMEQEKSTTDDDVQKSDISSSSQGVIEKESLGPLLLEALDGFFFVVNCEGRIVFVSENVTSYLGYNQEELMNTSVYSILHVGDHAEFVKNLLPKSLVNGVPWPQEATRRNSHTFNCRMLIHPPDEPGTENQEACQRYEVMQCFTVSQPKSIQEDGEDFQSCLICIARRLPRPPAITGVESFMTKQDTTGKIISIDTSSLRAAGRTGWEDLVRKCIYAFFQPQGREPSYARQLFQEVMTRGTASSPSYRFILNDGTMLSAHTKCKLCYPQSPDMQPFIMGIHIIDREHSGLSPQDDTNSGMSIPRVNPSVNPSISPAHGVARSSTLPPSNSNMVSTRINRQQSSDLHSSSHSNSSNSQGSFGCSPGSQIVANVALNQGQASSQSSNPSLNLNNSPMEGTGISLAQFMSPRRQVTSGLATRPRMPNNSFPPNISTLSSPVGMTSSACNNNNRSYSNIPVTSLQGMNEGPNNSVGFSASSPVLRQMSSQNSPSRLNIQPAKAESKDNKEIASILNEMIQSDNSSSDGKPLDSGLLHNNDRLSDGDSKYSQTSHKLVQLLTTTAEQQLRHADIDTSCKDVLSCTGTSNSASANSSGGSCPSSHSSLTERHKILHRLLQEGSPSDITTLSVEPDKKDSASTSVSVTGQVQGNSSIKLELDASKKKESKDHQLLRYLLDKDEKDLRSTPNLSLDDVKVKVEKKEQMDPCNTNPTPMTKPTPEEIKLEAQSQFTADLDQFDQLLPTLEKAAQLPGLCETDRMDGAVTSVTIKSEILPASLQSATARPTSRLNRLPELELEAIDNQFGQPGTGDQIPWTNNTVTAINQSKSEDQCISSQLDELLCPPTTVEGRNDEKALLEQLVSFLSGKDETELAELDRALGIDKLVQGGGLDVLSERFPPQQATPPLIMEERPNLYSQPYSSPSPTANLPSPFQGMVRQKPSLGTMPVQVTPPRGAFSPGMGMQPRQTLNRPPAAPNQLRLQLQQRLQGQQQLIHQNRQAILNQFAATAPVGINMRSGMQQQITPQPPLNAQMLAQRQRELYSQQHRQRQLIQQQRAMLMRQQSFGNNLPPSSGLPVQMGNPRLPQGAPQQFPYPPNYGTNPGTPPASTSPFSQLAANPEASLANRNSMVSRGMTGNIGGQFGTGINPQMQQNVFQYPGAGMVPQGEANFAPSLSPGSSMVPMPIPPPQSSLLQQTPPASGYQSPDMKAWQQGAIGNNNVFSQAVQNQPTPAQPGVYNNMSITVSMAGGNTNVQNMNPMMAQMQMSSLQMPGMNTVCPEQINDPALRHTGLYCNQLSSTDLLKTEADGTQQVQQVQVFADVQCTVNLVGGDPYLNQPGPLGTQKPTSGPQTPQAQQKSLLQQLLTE

CN(CCN1CCC2(CC1)C(=O)NCN2c1ccccc1)C(=O)c1ccc2ccccc2c1 was tested, and the IC50 [1] was 20 µM (inactive) and the IC50 [2] was 20 µM (active).

COc1cccc(-c2nc(/C=C/c3ccccc3)no2)c1 was tested, and the IC50 [3] was 52 µM (active), the IC50 [4] was 33.5 µM (active) and the IC50 [5] was 12.2 µM (active). The IC50 [6] was 47 µM (active), the IC50 [7] was 12.2 µM (active) and the IC50 [8] was 45 µM (active). The IC50 [9] was 13.5 µM (active) and the IC50 [10] was 14 µM (active).

In the case of CC(C)OC(=O)CSc1nc2cc3c(cc2cc1C#N)OCO3, the EC50 [11] is reported as 10.2 µM (not active), the EC50 [12] is reported as 11.9 µM (not active) and the EC50 [13] is reported as 18.3 µM (not active). The AC50 [14] was > 35 µM (active) and the AC50 [15] was > 35 µM (active).

For CN(C)CCC(c1ccccc1)c1ccccn1 (stereo unspecified), the AC50 [16] was 35.5 µM (inconclusive).
